Source: PubChem BioAssay AID248 (DTP/NCI, 2004)
Values joined by “and” are separate entries in the source; they are usually repeats but may differ in a detail not shown here. Equal values may be shown once. Toxic doses and inconclusive results are not listed. Rule as the data show it: active = T/C of 150% or more; inactive = T/C below 125%.

Tested on: L1210 leukemia ip in BDF1 mice, survival T/C
Assay: NCI In Vivo Anticancer Drug Screen. Data for tumor model L1210 Leukemia (intraperitoneal) in B6D2F1 (BDF1) mice
Details: endpoint: mean survival time, higher = longer survival
Outline: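 Transplanted-tumor mice were given test agent; controls received vehicle only. Survival readings from the two groups were divided (treated over control).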

[1] = dose: 100.0 mg/kg/injection, schedule: Q01DX001 (ip), vehicle: saline
[2] = dose: 200.0 mg/kg/injection, schedule: Q01DX001 (ip), vehicle: saline
[3] = dose: 400.0 mg/kg/injection, schedule: Q01DX001 (ip), vehicle: saline
[4] = dose: 100.0 mg/kg/injection, schedule: Q01DX009 (ip), vehicle: saline with Tween-80
[5] = dose: 200.0 mg/kg/injection, schedule: Q01DX009 (ip), vehicle: saline with Tween-80
[6] = dose: 100.0 mg/kg/injection, schedule: Q04DX003 (ip), vehicle: Klucel (hydroxypropylcellulose) (HPC)
[7] = dose: 200.0 mg/kg/injection, schedule: Q04DX003 (ip), vehicle: Klucel (hydroxypropylcellulose) (HPC)
[8] = dose: 400.0 mg/kg/injection, schedule: Q04DX003 (ip), vehicle: Klucel (hydroxypropylcellulose) (HPC)
[9] = dose: 100.0 mg/kg/injection, schedule: Q04DX002 (ip), vehicle: Klucel (hydroxypropylcellulose) (HPC)
[10] = dose: 200.0 mg/kg/injection, schedule: Q04DX002 (ip), vehicle: Klucel (hydroxypropylcellulose) (HPC)
[11] = dose: 400.0 mg/kg/injection, schedule: Q04DX002 (ip), vehicle: Klucel (hydroxypropylcellulose) (HPC)
[12] = dose: 100.0 mg/kg/injection, schedule: Q01DX009 (ip), vehicle: saline
[13] = dose: 100.0 mg/kg/injection, schedule: Q04DX003 (ip), vehicle: saline
[14] = dose: 200.0 mg/kg/injection, schedule: Q01DX009 (ip), vehicle: saline
[15] = dose: 200.0 mg/kg/injection, schedule: Q04DX003 (ip), vehicle: saline
[16] = dose: 400.0 mg/kg/injection, schedule: Q04DX003 (ip), vehicle: saline
[17] = dose: 100.0 mg/kg/injection, schedule: Q01DX001 (ip), vehicle: carboxymethylcellulose (CMC)
[18] = dose: 200.0 mg/kg/injection, schedule: Q01DX001 (ip), vehicle: carboxymethylcellulose (CMC)
[19] = dose: 400.0 mg/kg/injection, schedule: Q01DX001 (ip), vehicle: carboxymethylcellulose (CMC)
[20] = dose: 400.0 mg/kg/injection, schedule: Q01DX009 (ip), vehicle: saline
[21] = dose: 100.0 mg/kg/injection, schedule: Q01DX001 (ip), vehicle: Klucel (hydroxypropylcellulose) (HPC)
[22] = dose: 100.0 mg/kg/injection, schedule: Q01DX009 (ip), vehicle: Klucel (hydroxypropylcellulose) (HPC)
[23] = dose: 200.0 mg/kg/injection, schedule: Q01DX001 (ip), vehicle: Klucel (hydroxypropylcellulose) (HPC)
[24] = dose: 200.0 mg/kg/injection, schedule: Q01DX009 (ip), vehicle: Klucel (hydroxypropylcellulose) (HPC)
[25] = dose: 400.0 mg/kg/injection, schedule: Q01DX001 (ip), vehicle: Klucel (hydroxypropylcellulose) (HPC)
[26] = dose: 100.0 mg/kg/injection, schedule: Q04DX003 (ip), vehicle: saline with Tween-80
[27] = dose: 200.0 mg/kg/injection, schedule: Q04DX003 (ip), vehicle: saline with Tween-80
[28] = dose: 400.0 mg/kg/injection, schedule: Q04DX003 (ip), vehicle: saline with Tween-80

Measured: T/C

CCCCCCC1CCCc2ccc(CCCC)cc21 (centres undefined)
inactive: dose: 50.0 mg/kg/injection, schedule: Q01DX001 (ip), vehicle: saline 110 % of control | [1] 106 % of control | [2] 101 % of control | [3] 101 % of control

COc1cc2c(cc1O)C(OC)(OC)CCCC2
inactive: dose: 50.0 mg/kg/injection, schedule: Q01DX009 (ip), vehicle: saline with Tween-80 96 % of control | [4] 96 % of control | [5] 93 % of control

CCOc1ccc(NC(=S)NC(=O)c2ccco2)cc1
inactive: [4] 93 % of control | [6] 104 % of control | [5] 93 % of control | [7] 94 % of control | [8] 100 % of control

ClCc1c(Cl)cccc1Cl
inactive: [9] 97 % of control | [10] 97 % of control | [11] 97 % of control

CC1=NC(C(=O)O)C(=O)O1 (centres undefined)
inactive: [12] 98 % of control | [13] 105 % of control | [14] 93 % of control | [15] 97 % of control | [16] 103 % of control

S=c1[nH]n(-c2ccccc2)c(=S)s1
inactive: [1] 100 % of control | [2] 105 % of control

CCCCCCCCCCCCCCCCS(=O)(=O)N/N=C/c1ccc(NC(C)=O)cc1
inactive: [17] 98 % of control | [18] 95 % of control | [19] 103 % of control

CN(N)C(=N)N
inactive: [12] 102 % of control | [14] 101 % of control | [20] 96 % of control

O=C1c2ccccc2C(=O)N1c1ccc(CBr)cc1
inactive: [21] 98 % of control | [22] 92 % of control and 94 % of control | [9] 106 % of control and 89 % of control | [6] 98 % of control | [23] 94 % of control | [24] 89 % of control | [10] 97 % of control and 102 % of control | [7] 90 % of control | [25] 89 % of control | [11] 92 % of control and 115 % of control | [8] 102 % of control

CCCCCCCCCN(CCCCCCCCC)CC(O)c1ccc2cc(Br)c3ccccc3c2c1 (centres undefined)
inactive: dose: 222.0 mg/kg/injection, schedule: Q01DX Z (ip), vehicle: methylcellulose (MC) 98 % of control | dose: 333.0 mg/kg/injection, schedule: Q01DX Z (ip), vehicle: methylcellulose (MC) 95 % of control | dose: 500.0 mg/kg/injection, schedule: Q01DX Z (ip), vehicle: methylcellulose (MC) 92 % of control

Cn1c(=O)n(C)c2ccccc21
inactive: dose: 50.0 mg/kg/injection, schedule: Q01DX009 (ip), vehicle: saline 110 % of control | [12] 106 % of control | [13] 108 % of control | [15] 108 % of control

O=C1OCc2cc[n+]([O-])cc21
inactive: [17] 97 % of control | [18] 96 % of control | [19] 107 % of control

CCCCCCCCC(=O)CCCCC
inactive: [12] 92 % of control | [13] 101 % of control | [14] 94 % of control | [15] 105 % of control | [16] 100 % of control

C/C=C/C=C/COC(=O)CCCCCCCC
inactive: dose: 100.0 mg/kg/injection, schedule: Q04DX002 (ip), vehicle: saline 103 % of control | dose: 200.0 mg/kg/injection, schedule: Q04DX002 (ip), vehicle: saline 103 % of control | dose: 400.0 mg/kg/injection, schedule: Q04DX002 (ip), vehicle: saline 108 % of control

CC(C)=CCOc1ccc2c(c1)OCO2
inactive: dose: 100.0 mg/kg/injection, schedule: Q04DX002 (ip), vehicle: saline with Tween-80 91 % of control | dose: 200.0 mg/kg/injection, schedule: Q04DX002 (ip), vehicle: saline with Tween-80 103 % of control

O=[N+]([O-])c1ccc(OCc2ccccc2)nc1
inactive: [4] 104 % of control | [5] 97 % of control | dose: 400.0 mg/kg/injection, schedule: Q01DX009 (ip), vehicle: saline with Tween-80 93 % of control

O=C(O)C1=CC2C3C=C(C(=O)O)C(C3)C2C1 (centres undefined)
inactive: [21] 96 % of control | [23] 96 % of control | [25] 97 % of control

COc1ccc(OC)c(NC(=O)Nc2ccc(Nc3ccccc3)cc2)c1
inactive: [7] 93 % of control | [8] 100 % of control

CC(C(O)c1cccs1)C(O)(C(F)(F)F)C(F)(F)F (centres undefined)
inactive: [26] 102 % of control | [27] 91 % of control | [28] 88 % of control

NC(=O)C1C(=O)OC2(CCCCC2)C1c1ccccc1 (centres undefined)
inactive: [1] 89 % of control | [2] 87 % of control | [3] 94 % of control

COc1ccc(CNCCO)cc1
inactive: [12] 96 % of control | [13] 96 % of control | [14] 91 % of control | [15] 98 % of control | [20] 97 % of control | [16] 93 % of control

COC1CC(O[C@H]2CC[C@@]3(C)[C@H](CC[C@@H]4[C@@H]3CC[C@]3(C)[C@@H](C5=CC(=O)OC5)[C@@H](OC(C)=O)C[C@]43O)C2)OC(C)C1O (some centres undefined)
inactive: dose: 5.0 mg/kg/injection, schedule: Q01DX001 (ip), vehicle: saline 94 % of control | dose: 10.0 mg/kg/injection, schedule: Q01DX001 (ip), vehicle: saline 108 % of control | dose: 20.0 mg/kg/injection, schedule: Q01DX001 (ip), vehicle: saline 100 % of control | dose: 40.0 mg/kg/injection, schedule: Q01DX001 (ip), vehicle: saline 103 % of control | dose: 50.0 mg/kg/injection, schedule: Q01DX001 (ip), vehicle: carboxymethylcellulose (CMC) 98 % of control | dose: 80.0 mg/kg/injection, schedule: Q01DX001 (ip), vehicle: saline 114 % of control | [17] 104 % of control

Nc1nc(NCCCc2ccccc2)c([N+](=O)[O-])c(=O)[nH]1
inactive: [4] 93 % of control | [5] 97 % of control

O=C(O)Cc1sc(=O)[nH]c1O
inactive: [12] 96 % of control | [13] 102 % of control | [14] 96 % of control | [15] 96 % of control | [20] 99 % of control | [16] 106 % of control

CC(c1ccc2ccccc2c1)C1CCCCC1C(=O)O (centres undefined)
inactive: [26] 96 % of control | [27] 97 % of control | [28] 94 % of control

O=c1[nH]c(=O)n(C2CCCCO2)cc1F (centres undefined)
inactive: dose: 2.5 mg/kg/injection, schedule: Q01DX009 (ip), vehicle: saline 100 % of control | dose: 5.0 mg/kg/injection, schedule: Q01DX009 (ip), vehicle: saline 104 % of control | dose: 10.0 mg/kg/injection, schedule: Q01DX009 (ip), vehicle: saline 94 % of control | dose: 20.0 mg/kg/injection, schedule: Q01DX009 (ip), vehicle: saline 96 % of control | dose: 40.0 mg/kg/injection, schedule: Q01DX009 (ip), vehicle: saline 100 % of control | dose: 80.0 mg/kg/injection, schedule: Q01DX009 (ip), vehicle: saline 96 % of control | dose: 160.0 mg/kg/injection, schedule: Q01DX009 (ip), vehicle: saline 98 % of control

CC(=O)Nc1ccc(OC(=O)Nc2cc(C)ccc2C)cc1
inactive: dose: 25.0 mg/kg/injection, schedule: Q01DX009 (ip), vehicle: Klucel (hydroxypropylcellulose) (HPC) 109 % of control | dose: 50.0 mg/kg/injection, schedule: Q01DX009 (ip), vehicle: Klucel (hydroxypropylcellulose) (HPC) 88 % of control | [22] 94 % of control | [9] 102 % of control | [6] 95 % of control | [24] 89 % of control | [10] 97 % of control | [7] 97 % of control | [11] 100 % of control | [8] 93 % of control

Cc1nc(N)nc(N)c1Cc1ccc(N=[N+]=[N-])cc1
inactive: dose: 25.0 mg/kg/injection, schedule: Q04DX002 (ip), vehicle: saline with Tween-80 98 % of control | dose: 50.0 mg/kg/injection, schedule: Q04DX002 (ip), vehicle: saline with Tween-80 113 % of control

CCC(=O)n1ncc2ccc([N+](=O)[O-])cc21
inactive: [26] 103 % of control | [27] 88 % of control | [28] 93 % of control
